The supplement of paper PMC11061612

Key:
Experiment in all cases: combination Emax (second highest fraction inhibited in the dose matrix, 72 h); higher = more inhibition; extreme values may be limits of the assay
[1] = tested on: SNU-16 (Gastric Carcinoma)
Procedure, shortened: (§1)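 Cell lines in DMEM/F12 or RPMI with 10% FBS were plated in 1536-well plates, held 24 hours at 37°C, 5% CO2, then given two-drug dose matrices for 72 hours (DMSO typically 0.2%). Viability was read by CellTiter-Glo 2.0 luminescence and scaled as inhibition from 0 (vehicle wells) to 1 (blank wells). Combination Emax is the second-highest inhibition in the matrix; Bliss excess is observed combination effect minus expected EA + EB − EA·EB, EA and EB being single-agent effects.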

[2] = tested on: MPP-89 (Mesothelioma)
Procedure, shortened: as §1

[3] = tested on: BFTC-909 (Kidney Carcinoma)
Procedure, shortened: as §1

[4] = tested on: Detroit562 (Head and Neck Carcinoma)
Procedure, shortened: as §1

[5] = tested on: LNZTA3WT4 (Low Grade Glioma)
Procedure, shortened: as §1

[6] = tested on: L-428 (Hodgkin's Lymphoma)
Procedure, shortened: as §1

[7] = tested on: ESS-1 (Other Solid Carcinomas)
Procedure, shortened: as §1

[8] = tested on: KS-1 (Glioblastoma)
Procedure, shortened: as §1

[9] = tested on: MHH-CALL-2 (B-Lymphoblastic Leukemia)
Procedure, shortened: as §1

[10] = tested on: OV-56 (Ovarian Carcinoma)
Procedure, shortened: as §1

[11] = tested on: GAMG (Glioblastoma)
Procedure, shortened: as §1

[12] = tested on: OVCAR-5 (Ovarian Carcinoma)
Procedure, shortened: as §1

[13] = tested on: BE-13 (T-Lymphoblastic Leukemia)
Procedure, shortened: as §1

[14] = tested on: BE2-M17 (Neuroblastoma)
Procedure, shortened: as §1

[15] = tested on: HuCCT1 (Biliary Tract Carcinoma)
Procedure, shortened: as §1

[16] = tested on: NCI-H2722 (Mesothelioma)
Procedure, shortened: as §1

[17] = tested on: SW1710 (Bladder Carcinoma)
Procedure, shortened: as §1

[18] = tested on: KYAE-1 (Esophageal Adenocarcinoma)
Procedure, shortened: as §1

[19] = tested on: LS-123 (Colorectal Carcinoma)
Procedure, shortened: as §1

[20] = tested on: NCI-H2052 (Mesothelioma)
Procedure, shortened: as §1

Compound | combination Emax [1] | combination Emax [2] | combination Emax [3] | combination Emax [4] | combination Emax [5] | combination Emax [6] | combination Emax [7] | combination Emax [8] | combination Emax [9] | combination Emax [10] | combination Emax [11] | combination Emax [12] | combination Emax [13] | combination Emax [14] | combination Emax [15] | combination Emax [16] | combination Emax [17] | combination Emax [18] | combination Emax [19] | combination Emax [20]
COc1nnc2ccc(N3CCC(c4ccc(OCCN5CCN(C)C(=O)[C@H]5C)cc4)CC3)nn12 [AZD5153] + C[C@@H]1COCCN1C2=NC(=NC(=C2)C3(CC3)[S@](=N)(=O)C)C4=C5C=CNC5=NC=C4 [AZD6738] (first compound max 1 µM, 7x7, partner max 10 µM) | 0.98 | 0.604 | 0.876 | 0.919 | 0.809 | 0.929 | 0.949 | 0.69 | 0.932 | 0.793 | 0.682 | 0.744 | 0.985 | 0.92 | 0.666 | 0.589 | 0.396 | 0.263 | 0.59 | 0.209
COc1nnc2ccc(N3CCC(c4ccc(OCCN5CCN(C)C(=O)[C@H]5C)cc4)CC3)nn12 [AZD5153] + Cc1c2c(nn1C)CSCc1cc(n(C)n1)CSc1cc(c3ccccc3c1)OCCCc1c(C(=O)O)n(C)c3c-2c(Cl)ccc13 [AZD5991] (first compound max 1 µM, 7x7, partner max 1 µM) | 1 | 0.581 | 0.535 | 0.877 | 0.441 | 0.833 | 0.898 | 0.629 | 1 | 0.351 | 0.425 | 0.496 | 0.998 | 0.847 | 0.495 | 0.508 | 0.355 | 0.0912 | 0.406 | 0.328
COc1nnc2ccc(N3CCC(c4ccc(OCCN5CCN(C)C(=O)[C@H]5C)cc4)CC3)nn12 [AZD5153] + Cn1cnc2c(F)c(Nc3ccc(Br)cc3Cl)c(C(=O)NOCCO)cc21 [Selumetinib] (first compound max 1 µM, 7x7, partner max 10 µM) | 0.902 | 0.554 | 0.488 | 0.792 | 0.383 | 0.784 | 0.585 | 0.645 | 0.432 | 0.336 | 0.527 | 0.685 | 0.672 | 0.825 | 0.826 | 0.516 | 0.441 | 0.116 | 0.794 | 0.403
Cc1c2c(nn1C)CSCc1cc(n(C)n1)CSc1cc(c3ccccc3c1)OCCCc1c(C(=O)O)n(C)c3c-2c(Cl)ccc13 [AZD5991] + C1CN(CCC1(C(=O)N[C@@H](CCO)C2=CC=C(C=C2)Cl)N)C3=NC=NC4=C3C=CN4 [Capivasertib] (first compound max 1 µM, 7x7, partner max 3 µM) | 0.996 | 0.268 | 0.446 | 0.325 | 0.237 | 0.155 | 0.366 | 0.338 | 1 | 0.169 | 0.477 | 0.215 | 0.38 | 0.966 | 0.162 | 0.173 | 0.256 | 0.334 | 0.281 | 0.265
Cc1c2c(nn1C)CSCc1cc(n(C)n1)CSc1cc(c3ccccc3c1)OCCCc1c(C(=O)O)n(C)c3c-2c(Cl)ccc13 [AZD5991] + C=CCn1c(=O)c2cnc(Nc3ccc(N4CCN(C)CC4)cc3)nc2n1-c1cccc(C(C)(C)O)n1 [AZD1775] (first compound max 1 µM, partner max 1 µM) | 1 | 0.477 | 0.944 | 0.749 | 0.823 | 0.82 | 0.988 | 0.464 | 1 | 0.244 | 0.522 | 0.343 | 1 | 0.986 | 0.759 | 0.397 | 0.344 | 0.668 | 0.66 | 0.346
Cc1c2c(nn1C)CSCc1cc(n(C)n1)CSc1cc(c3ccccc3c1)OCCCc1c(C(=O)O)n(C)c3c-2c(Cl)ccc13 [AZD5991] + CC1(C)CCC(CN2CCN(c3ccc(C(=O)NS(=O)(=O)c4ccc(NCC5CCOCC5)c([N+](=O)[O-])c4)c(Oc4cnc5[nH]ccc5c4)c3)CC2)=C(c2ccc(Cl)cc2)C1 [Venetoclax] (first compound max 1 µM, 7x7, partner max 1 µM) | 0.994 | 0.171 | 0.239 | 0.156 | 0.203 | 0.158 | 0.39 | 0.146 | 0.983 | 0.173 | 0.315 | 0.159 | 0.916 | 0.915 | 0.203 | 0.122 | 0.168 | 0.225 | 0.142 | 0.229
